Patent publication US11229664B2, “Treatment of myelosuppression” (priority 2012, dated 2022)
“And” between values parts separate entries of the source, which are not always exact repeats. Equal entries are not always repeated.

Experiments:
[1] = system: metastatic adenocarcinoma of the pancreas; assay: Clinical trial: tumor response and disease status (RECIST 1.1), ECOG performance status; type: in vivo, human
Procedure: (§1) Treatment consisted of a series of 28-day cycles, wherein the last day of one cycle (e.g., day 28, cycle 1) was immediately followed by the first day of the next cycle (e.g., day 1, cycle 2). In each 28-day treatment cycle, patients were dosed at days 1, 8, and 15 (three weeks of medication followed by one week of rest) as follows. First, nab-paclitaxel at 125 mg/m^2 was administered as an intravenous infusion over 30 minutes. […] Nab-paclitaxel and gemcitabine therapy was given as described in the prescribing information for Abraxane® and Gemzar®. See also, Von Hoff et al., 2011, J. Clinical Oncology 29:1-7).
(§2) As a substantially non-anticoagulant heparinoid, ODSH can be administered at a dose that is greater than the fully anticoagulant dose of unfractionated heparin, without concern for anticoagulant effect, as shown in the Results below.
Blood samples were also tested on day 1 of each treatment cycle for the serum level of CA19-9 (carbohydrate antigen 19-9) a marker used to assess the efficacy of the chemotherapy agents in treating pancreatic cancer. See. e.g., Maeda, 2011, Int. J. Clin. Oncol. 16(5):539-45. Reduction in the serum level of CA19-9 is indicative of chemotherapeutic efficacy against the pancreatic cancer. Tumor response and disease status was measured according to Response Evaluation Criteria in Solid Tumors (RECIST) Guidelines Version 1.1. Eur. J. Cancer, 2009, 45:228-247. A reduction of at least 30% in the sum of the diameters of target lesions (measurable lesions present at screening, up to 2 lesions per involved organ) was scored as a partial response. Patients were scored as having stable disease where the smallest sum of target lesion diameters neither decreased nor increased sufficiently to qualify as a partial response or progressive disease.

[2] = type: in vivo, human; settings: ODSH adjunct to gemcitabine/nab-paclitaxel
Procedure: Patients were also assessed for other side effects of chemotherapy, including fatigue, sensory neuropathy, nausea, and vomiting, each of which was graded according to severity. Grades were: 0 (normal), 1 (mild), 2 (moderate), 3 (severe) and 4 (life-threatening).

[3] = type: in vivo, human
Procedure: as §1, §2

[4] = system: partial thromboplastin time (aPTT); assay: Clinical trial: partial thromboplastin time (aPTT) during ODSH infusion; type: in vivo, human; settings: for aPTT: individual patients
Description: as §2
Lack of anticoagulation by ODSH was confirmed by monitoring partial thromboplastin time (aPTT) during ODSH infusion, at days 1, 3, 10, and 17 of treatment cycle 1. Normal range of aPTT is about 27 to 35 seconds+/−15%.

clotting time (aPTT) = assay: aPTT assay, clotting time after administration to a subject; type: in vivo; settings: administered to a subject at a (dose equivalent to a) fully-anticoagulating dose of unfractionated heparin; normal about 27 to 35 seconds
Description: In various preferred embodiments, the PF4-interacting heparinoid is substantially nonanticoagulant. Anti-coagulation activity can be determined using assays known in the art, e.g., activated partial thromboplastin time (aPTT), prothrombin time, anti-Xa clotting and amidolytic assays. See, e.g., U.S. Pat. No. 5,668,118, Example IV; Fryer et al., 1997, J. Pharmacol. Exp. Ther. 282: 208-219, at page 209; Rao et al., 2010, Am. J. Physiol. 299:C97-C110, at page C98; United States Pharmacopeial Convention 1995 (for USP anticoagulant assay and amidolytic assay).
In contrast to unfractionated heparin, ODSH is substantially non-anticoagulating: administered to a subject at a dose that is equivalent to a fully-anticoagulating dose of unfractionated heparin, the clotting time measured in an aPTT assay is no greater than 45 seconds, and typically in the upper range of normal, where normal clotting time ranges from about 27 to 35 seconds. By comparison, unfractionated heparin administered to a subject at a fully anticoagulant dose causes time to clot to range from about 60 to about 85 seconds in an aPTT assay. Another measure of ODSH's anticoagulant activity is its anti-Xa activity which can be determined in an assay carried out using plasma treated with Russell viper venom. […] Whether or not a heparinoid is substantially non-anticoagulating can be determined using any of the above assays.

neutrophils = assay: Clinical trial, metastatic pancreatic cancer: absolute neutrophil count / neutropenia grade; type: in vivo, human; design: Neutrophil count: unit not given here; settings: for Neutrophil Values / Neutrophil count: individual patients; for Neutrophil Values: ODSH adjunctive to gemcitabine and nab-paclitaxel; for Neutrophil count: randomized stage
Description: Male and non-pregnant, non-lactating, female patients, aged 18 to 75, with histologically confirmed metastatic adenocarcinoma of the pancreas were enrolled in the trial. […] Treatment consisted of a series of 28-day cycles, wherein the last day of one cycle (e.g., day 28, cycle 1) was immediately followed by the first day of the next cycle (e.g., day 1, cycle 2). […] Nab-paclitaxel and gemcitabine therapy was given as described in the prescribing information for Abraxane® and Gemzar®. See also, Von Hoff et al., 2011, J. […] As a substantially non-anticoagulant heparinoid, ODSH can be administered at a dose that is greater than the fully anticoagulant dose of unfractionated heparin, without concern for anticoagulant effect, as shown in the Results below. An initial run-in period was conducted in which ten patients were treated with the gemcitabine, nab-paclitaxel, and ODSH regimen described above. After all ten patients had completed at least one 28-day cycle, the data were reviewed and an open-label randomized study initiated, with two arms (ODSH arm and Control arm). In the ODSH arm, the dosing regimen was the same as in the run-in period (gemcitabine, nab-paclitaxel, and ODSH). In the Control arm, patients were given the same gemcitabine and nab-paclitaxel regimen as in the run-in period, but without ODSH. […] Platelet counts, total white blood cell counts, and absolute neutrophil counts were performed. Grading of thrombocytopenia and/or neutropenia was performed according to the following standards: [table]

[5] = ten patients, ODSH adjunct to gemcitabine/nab-paclitaxel
[6] = ODSH adjunct to gemcitabine/nab-paclitaxel

With “substantially 2-O, 3-O desulfated heparin [ODSH]” the “ECOG Performance status” value ([1]; 7 evaluable patients, after 8 weeks in the trial (day 1 of cycle 3)) was “stable or improved”, the “Patients with clinical or radiographic evidence of progressive disease” value ([1]; after three or four full cycles of treatment) was “no patient” and the “Patients with partial response (RECIST)” value [1, 5] was 5 patients. For the same substance, the “Patients with stable disease (RECIST)” value [1, 5] was 5 patients, the “Patients experiencing no more than Grade 1 side effects (fatigue, sensory neuropathy, nausea, vomiting)” value [2] was “more than 50%” and the “Effect on patient weight” value [3, 6] was “minimum weight loss or even some weight gain”. The Weight ([3]; individual patients, ODSH adjunctive to gemcitabine and nab-paclitaxel, Cycle 6 Day 1) was 176 pounds and 133 pounds and 157 pounds, the “Anticoagulation as determined by partial thromboplastin time (aPTT)” value ([4]; 4 mg/kg bolus + 0.375 mg/kg/hr 48 h) was “did not result in anticoagulation” and the aPTT ([4]; Cycle 1 Day 1) was 29 seconds (2×) and 24 seconds and 36 seconds and 33 seconds and 28 seconds and 26 seconds and 25 seconds and 27 seconds. For the same substance, the aPTT ([4]; Cycle 1 Day 3) was 28 seconds and 33 seconds (2×) and 43 seconds and 38 seconds and 31 seconds (3×) and 34 seconds, the aPTT ([4]; Cycle 1 Day 10) was 34 seconds (2×) and 32 seconds and 38 seconds and 35 seconds and 31 seconds (2×) and 33 seconds and 36 seconds and the aPTT ([4]; Cycle 1 Day 17) was 34 seconds and 28 seconds and 30 seconds (2×) and 42 seconds and 36 seconds and 33 seconds and 29 seconds. The “Clotting time in aPTT assay” value (clotting time (aPTT)) was ≤ 45 s, the “Patients with increased or unchanged neutrophil counts on first day of second cycle vs first day of first cycle” value (neutrophils; [6]) was “Five out of 10” and the “Patients with normal neutrophil counts at the start of the fourth cycle” value (neutrophils; [6]) was 10 out of 10. The “Patients with normal neutrophil counts at the start of the third cycle” value (neutrophils; [6]) was 8 out of 9, the “Patients with normal neutrophil counts on the first day of the second treatment cycle” value (neutrophils; [6]) was “Eight out of 10” and the “Mean and median absolute neutrophil counts on the first day of treatment cycles 2 and 3” value (neutrophils; all samples (FIG. 10B), ODSH adjunct to gemcitabine/nab-paclitaxel) was “above 2,000”. For the same substance, the “Patients with no more than mild neutropenia after two doses of treatment” value (neutrophils; day 15, first cycle, ODSH adjunct to gemcitabine/nab-paclitaxel) was 44%, the “Patients with no more than mild neutropenia after five or eight doses of treatment” value (neutrophils; day 15 of cycle 2 or day 15 of cycle 3, ODSH adjunct to gemcitabine/nab-paclitaxel) was 7 out of 10 and the “Neutrophil Values” (neutrophils; Cycle 1 Day 1 (before treatment)) was 4.3 ×10^3/μl blood (2×) and 3.6 ×10^3/μl blood (2×) and 5.5 ×10^3/μl blood and 2.1 ×10^3/μl blood and 3.3 ×10^3/μl blood. The “Neutrophil Values” (neutrophils; Cycle 1 Day 8) was 1.3 ×10^3/μl blood and 2.1 ×10^3/μl blood and 4.3 ×10^3/μl blood and 0.5 ×10^3/μl blood and 3.0 ×10^3/μl blood and 1.5 ×10^3/μl blood, the “Neutrophil Values” (neutrophils; Cycle 1 Day 15) was 0.7 ×10^3/μl blood (2×) and 1.6 ×10^3/μl blood and 3.6 ×10^3/μl blood and 3.5 ×10^3/μl blood and 1.0 ×10^3/μl blood and the “Neutrophil Values” (neutrophils; Cycle 2 Day 1) was 7.3 ×10^3/μl blood and 1.6 ×10^3/μl blood and 4.6 ×10^3/μl blood and 13.0 ×10^3/μl blood and 2.1 ×10^3/μl blood and 6.0 ×10^3/μl blood and 3.6 ×10^3/μl blood. The “Neutrophil Values” (neutrophils; Cycle 2 Day 8) was 3.8 ×10^3/μl blood and 2.6 ×10^3/μl blood and 3.7 ×10^3/μl blood (2×) and 6.3 ×10^3/μl blood and 1.3 ×10^3/μl blood and 1.9 ×10^3/μl blood, the “Neutrophil Values” (neutrophils; Cycle 2 Day 15) was 1.8 ×10^3/μl blood and 1.7 ×10^3/μl blood and 3.8 ×10^3/μl blood and 0.7 ×10^3/μl blood and 1.5 ×10^3/μl blood and 1.1 ×10^3/μl blood and 1.0 ×10^3/μl blood and the “Neutrophil Values” (neutrophils; Cycle 3 Day 1) was 2.7 ×10^3/μl blood and 2.8 ×10^3/μl blood and 2.2 ×10^3/μl blood and 3.9 ×10^3/μl blood and 1.8 ×10^3/μl blood and 3.2 ×10^3/μl blood. The “Neutrophil Values” (neutrophils; Cycle 3 Day 8) was 1.6 ×10^3/μl blood and 4.2 ×10^3/μl blood and 6.8 ×10^3/μl blood and 3.9 ×10^3/μl blood and 1.4 ×10^3/μl blood (2×), the “Neutrophil Values” (neutrophils; Cycle 3 Day 15) was 1.5 ×10^3/μl blood (2×) and 1.8 ×10^3/μl blood and 4.5 ×10^3/μl blood and 1.4 ×10^3/μl blood and 0.8 ×10^3/μl blood and 2.6 ×10^3/μl blood and the “Neutrophil Values” (neutrophils; Cycle 4 Day 1) was 2.2 ×10^3/μl blood and 5.2 ×10^3/μl blood and 5.7 ×10^3/μl blood and 5.9 ×10^3/μl blood and 3.5 ×10^3/μl blood and 3.2 ×10^3/μl blood and 2.7 ×10^3/μl blood. For the same substance, the “Neutrophil Values” (neutrophils; Cycle 4 Day 8) was 2.5 ×10^3/μl blood and 2.7 ×10^3/μl blood and 2.2 ×10^3/μl blood and 2.0 ×10^3/μl blood and 1.4 ×10^3/μl blood, the “Neutrophil Values” (neutrophils; Cycle 4 Day 15) was 4.6 ×10^3/μl blood and 2.4 ×10^3/μl blood and 3.4 ×10^3/μl blood and 0.7 ×10^3/μl blood and 1.7 ×10^3/μl blood and the “Neutrophil Values” (neutrophils; Cycle 5 Day 1) was 1.6 ×10^3/μl blood and 3.2 ×10^3/μl blood and 3.3 ×10^3/μl blood and 23.2 ×10^3/μl blood. The “Neutrophil Values” (neutrophils; Cycle 5 Day 8) was 2.1 ×10^3/μl blood and 3.4 ×10^3/μl blood and 1.6 ×10^3/μl blood and 4.1 ×10^3/μl blood, the “Neutrophil Values” (neutrophils; Cycle 5 Day 15) was 0.8 ×10^3/μl blood and 3.9 ×10^3/μl blood and 1.1 ×10^3/μl blood and the “Neutrophil Values” (neutrophils; Cycle 6 Day 1) was 13.5 ×10^3/μl blood and 2.3 ×10^3/μl blood. For the same substance, the “Neutrophil Values” (neutrophils; Cycle 6 Day 8) was 1.3 ×10^3/μl blood and 1.2 ×10^3/μl blood, the “Neutrophil Values” (neutrophils; Cycle 6 Day 15) was 1.7 ×10^3/μl blood and 10.7 ×10^3/μl blood and the “Neutrophil Values” (neutrophils; Screen) was 5.6 ×10^3/μl blood and 5.9 ×10^3/μl blood and 4.0 ×10^3/μl blood (2×) and 5.3 ×10^3/μl blood and 4.3 ×10^3/μl blood and 9.3 ×10^3/μl blood. The Neutrophil count (neutrophils; Cycle 1 Day 15) was 2.4 and 1.4 and 4.0 (2×) and 0.8 and 4.7 and 3.0 and 0.3, the Neutrophil count (neutrophils; Cycle 2 Day 15) was 1.8 (2×) and 1.6 and 0.8 and 3.7 (2×) and the Neutrophil count (neutrophils; Cycle 3 Day 15) was 1.0 and 1.6 and 0.8 and 5.4. For the same substance, the Neutrophil count (neutrophils; Cycle 4 Day 15) was 4.8 and 4.1.
